Assay results taken from the CheMixHub drug solubility set.

Test: xn = mol fraction of the nth substance listed, in the solute-free solvent

CN1CCN(C2=Nc3cc(Cl)ccc3Nc3ccccc32)CC1 + ClCCCl + Cc1ccccc1
solubility (g/100 g solution)
Conditions | x2 = 0.09454 | x2 = 0.1907 | x2 = 0.2875 | x2 = 0.3851 | x2 = 0.4844 | x2 = 0.5848 | x2 = 0.6866 | x2 = 0.79 | x2 = 0.8945
293.15 K | 2.42 | 2.81 | 3.04 | 3.48 | 3.87 | 4.26 | 4.74 | 5.15 | 5.47
298.15 K | 2.8 | 3.04 | 3.49 | 3.86 | 4.38 | 4.96 | 5.44 | 5.92 | 6.3
303.15 K | 3.12 | 3.63 | 3.88 | 4.47 | 5.03 | 5.87 | 6.44 | 6.95 | 7.31
308.15 K | 3.94 | 4.47 | 4.94 | 5.58 | 6.12 | 6.82 | 7.42 | 8.2 | 8.68
313.15 K | 4.7 | 5.37 | 5.95 | 6.67 | 7.33 | 8.06 | 8.85 | 9.38 | 9.62
318.15 K | 5.75 | 6.09 | 6.93 | 7.46 | 8.32 | 9.3 | 9.75 | 10.8 | 11.5
323.15 K | 7.24 | 7.72 | 8.87 | 9.82 | 10.7 | 11.6 | 12.3 | 13.2 | 13.6

O=c1ccc(-c2ccccc2)n[nH]1 + CS(C)=O + O
solubility (g/100 g solution)
Conditions | x2 = 0.02501 | x2 = 0.05457 | x2 = 0.09003 | x2 = 0.1334 | x2 = 0.1876 | x2 = 0.2572 | x2 = 0.3501 | x2 = 0.4801 | x2 = 0.6751
298.15 K | 0.016 | 0.0442 | 0.124 | 0.333 | 0.899 | 2.36 | 6.21 | 14.3 | 30.9
303.15 K | 0.0188 | 0.051 | 0.14 | 0.376 | 1.01 | 2.59 | 6.53 | 15.1 | 32.4
308.15 K | 0.0223 | 0.0609 | 0.166 | 0.428 | 1.12 | 2.85 | 7.05 | 16.1 | 33.6
313.15 K | 0.0267 | 0.0709 | 0.188 | 0.487 | 1.26 | 3.14 | 7.63 | 17.1 | 35.2
318.15 K | 0.0334 | 0.0872 | 0.224 | 0.571 | 1.45 | 3.54 | 8.41 | 18.3 | 36.8

Cc1c(Br)cccc1C(=O)O + CN(C)C=O + O
solubility (g/100 g solution)
Conditions | x2 = 0.039 | x2 = 0.091 | x2 = 0.16 | x2 = 0.259 | x2 = 0.411 | x2 = 0.677
278.15 K | 5.54 | 9.19 | 12.7 | 16.1 | 19.4 | 22.9
283.15 K | 8.07 | 11.1 | 15.1 | 18.9 | 22.7 | 26.7
288.15 K | 6.03 | 11.5 | 16.6 | 21.4 | 26 | 30.7
293.15 K | 9.6 | 15.3 | 20.6 | 25.5 | 30.3 | 35.3
298.15 K | 11.6 | 18.1 | 23.9 | 29.3 | 34.6 | 40.1
303.15 K | 13.8 | 21 | 27.5 | 33.4 | 39.2 | 45.3
308.15 K | 16 | 24.1 | 31.1 | 37.6 | 43.8 | 50.5
313.15 K | 18.6 | 27.5 | 35.2 | 42.1 | 48.7 | 55.9
318.15 K | 21.6 | 31.2 | 39.4 | 46.6 | 53.5 | 61.2
323.15 K | 24.4 | 35 | 43.7 | 51.3 | 58.6 | 66.8
328.15 K | 27.9 | 39 | 48.1 | 55.9 | 63.4 | 72

CCC(C)n1ncn(-c2ccc(N3CCN(c4ccc(OCC5COC(Cn6cncn6)(c6ccc(Cl)cc6Cl)O5)cc4)CC3)cc2)c1=O (centres undefined) + ClCCl + CO
solubility (g/100 g solution)
Conditions | x2 = 0.04066 | x2 = 0.08707 | x2 = 0.1405 | x2 = 0.2028 | x2 = 0.2761 | x2 = 0.364 | x2 = 0.4709 | x2 = 0.6041 | x2 = 0.7744
288.15 K | 0.122 | 0.244 | 0.561 | 1.46 | 4.71 | 10.6 | 19.3 | 28 | 31.4
293.15 K | 0.147 | 0.294 | 0.696 | 1.84 | 5.79 | 12.5 | 21.2 | 29.4 | 32.6
298.15 K | 0.177 | 0.355 | 0.855 | 2.28 | 6.97 | 14.5 | 23.2 | 30.8 | 33.9
303.15 K | 0.212 | 0.426 | 1.04 | 2.83 | 8.37 | 16.8 | 25.3 | 32.2 | 35
308.15 K | 0.253 | 0.508 | 1.26 | 3.5 | 9.95 | 19.3 | 27.6 | 33.6 | 36.2
